Measured values as given in patent publication US20030078518A1, “Method of treating the skin of a subject” (priority 2001, published 2003).

Columns and labels:
Type in all cases: in vivo, human
IgE = assay: Study 2: Total IgE ELISA in interstitial fluid, effect of supplementation; conditions: for Concentration of IgE (log), MEAN: Supplement Yes
Description: (§1) The laser made four pores at each collection site.
(§2) The other skin analytes were measured in Study 2 using standard ELISA kits: MMP-1 (ELISA Cat # QIA55, Oncogene Research Products, Cambridge Mass.); Total IgE (ELISA Cat # RE59061, IBL, Hamburg, Germany distributed by KMI Diagnostics); Non Extraction IGF-1 (ELISA Cat # DSL-10-2800, Diagnostics Systems Laboratories, Webster Tex.); IL-1 RA (ELISA Cat # DRA00, R&D Systems, Minneapolis, Minn.); IL-1A (ELISA Cat # EH2IL1A, Pierce/Endogen, Rockford, Ill.).

IGF-1 = assay: Study 2: IGF-1 ELISA in interstitial fluid, effect of supplementation; conditions: Supplement Yes
Description: as §1, §2

IL-1A = assay: Study 2: IL-1A ELISA in interstitial fluid, effect of supplementation; conditions: for Concentration of IL-1A (log), MEAN: Supplement Yes
Description: as §1, §2

IL-1 RA = assay: Study 2: IL-1 RA ELISA in interstitial fluid, effect of supplementation; conditions: for Concentration of IL-1 RA (log), MEAN: Supplement Yes
Description: as §1, §2

MMP-1 = assay: Study 2: MMP-1 ELISA in interstitial fluid, effect of supplementation; conditions: for Concentration of MMP-1 (log), MEAN: Supplement Yes
Description: as §1, §2

With `O=C1O[C@H]([C@@H](O)CO)C(O)=C1O` [Vitamin C] the “Effect of vitamin C supplement on concentration of IgE in ISF” value (IgE) was “significantly increased”, the “Concentration of IgE (log), MEAN” value (IgE; sun-exposed site ISF) was 4.94 and the “Concentration of IgE (log), MEAN” value (IgE; sun-protected site ISF) was 18.50. For the same compound, the “Concentration of IGF-1, MEAN” value (IGF-1; sun-exposed site ISF) was 76.83, the “Concentration of IGF-1, MEAN” value (IGF-1; sun-protected site ISF) was 97.78 and the “Effect of vitamin C supplement on concentration of IL-1A in ISF” value (IL-1A) was “significantly increased”. For the same compound, the “Concentration of IL-1A (log), MEAN” value (IL-1A; sun-exposed site ISF) was 120.24, the “Concentration of IL-1A (log), MEAN” value (IL-1A; sun-protected site ISF) was 191.5 and the “Effect of vitamin C supplement on concentration of IL-1 RA in ISF” value (IL-1 RA) was “significantly increased”. For the same compound, the “Concentration of IL-1 RA (log), MEAN” value (IL-1 RA; sun-exposed site ISF) was 10140, the “Concentration of IL-1 RA (log), MEAN” value (IL-1 RA; sun-protected site ISF) was 9492 and the “Effect of vitamin C supplement on concentration of MMP-1 in ISF” value (MMP-1) was “significantly increased”. The “Concentration of MMP-1 (log), MEAN” value (MMP-1; sun-exposed site ISF) was 0.64 and the “Concentration of MMP-1 (log), MEAN” value (MMP-1; sun-protected site ISF) was 0.91.
